In PubChem BioAssay (NCI) one finds GI50 and TGI data, which are given here for seven compounds.

The structures appear in SMILES notation.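 Interpolation was linear, between the two tested concentrations surrounding the appropriate level; five concentrations were tested over 48 hours in 96-well plates. Abbreviation: GI50, concentration required for 50% inhibition of growth. TGI: concentration producing complete growth inhibition.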

Common to all, as to assay: growth of human tumour cells (NCI), 48 h
In assay [1] the test system is COLO 205 colon.
Assay [2] concerns SNB-19 CNS.
Assay [3] deals with K-562 leukemia.
Assay [4] relates to TK-10 renal.
Assay [5] deals with CCRF-CEM leukemia.
The subject of assay [6] is RPMI-8226 leukemia.
Assay [7] relates to NCI/ADR-RES ovarian.
The subject of assay [8] is UACC-62 melanoma.
The subject of assay [9] is HCC-2998 colon.
Assay [10] has as its system HCT-15 colon.

Regarding `CN1CCN(Cc2ccc(NC(=O)c3cncc(C#Cc4cnc(N)c5ccncc45)c3)cc2C(F)(F)F)CC1`, the GI50 is 0.181 µM in assay [1]; 3.23 µM in assay [2]; 0.0146 µM in assay [3]; 1.56 µM in assay [4]; 0.554 µM in [5]; 1.09 µM in assay [6]. Besides, the GI50 in assay [7] was 6.74 µM; in assay [8] it was 0.227 µM; in assay [9], 1.78 µM; in assay [10], 1.42 µM. The TGI in assay [1] is 1.95 µM; in assay [2], 9.62 µM; in [3], 5.21 µM; in [4], 7.84 µM; in assay [5] it was 11.6 µM; in [6], 5.77 µM. The TGI in [7] came to 16.5 µM; in [8], 1.86 µM; in assay [9] it was 7.89 µM; in [10], 5.84 µM.

Turning to `c1ccc2c(c1)c(NCCCCN1CCCCC1)cc1c3ccccc3c(NCCCCN3CCCCC3)cc21`, the GI50 in assay [1] was 21.9 µM; in [2] it was 22.5 µM; in assay [3], 7.85 µM; in assay [4], 22.1 µM; in assay [5], 13.4 µM; in [6] it was 3.85 µM. The GI50 in assay [7] was 16.6 µM; in assay [8] it was 19.5 µM; in [9] it was 18.2 µM; in [10] it was 22.8 µM. Moreover, the TGI in assay [1] is 47.7 µM; in [2], 50.9 µM; in [3], over 100 µM; in assay [4] it was 48.9 µM; in [5], over 100 µM; in assay [6], 74.5 µM. Further, the TGI in [7] was found to be 38.4 µM; in assay [8] it was 35.4 µM; in assay [9], 41.6 µM; in assay [10], 47.5 µM.

As for `O=[N+]([O-])c1cccc(-c2nc3sccn3c2-c2ccnc(NCCCNS(=O)(=O)c3cccc(F)c3)n2)c1`, the GI50 was 2.46 µM in assay [1]; 4.34 µM in assay [2]; 1.73 µM in assay [3]; 5.38 µM in [4]; 1.3 µM in assay [5]; 0.984 µM in assay [6]. The GI50 in [7] was 1.72 µM; in [8], 1.16 µM; in [9], 6.79 µM; in [10], 2.3 µM. The TGI was 8.11 µM in assay [1]; 61.8 µM in [2]; over 100 µM in assay [3]; 52 µM in [4]; over 100 µM in assay [5]; 4.18 µM in assay [6]. Further, the TGI in [7] was 6.49 µM; in [8], 4.26 µM; in [9], over 100 µM; in [10], 12.3 µM.

`C=CC(=O)N1CCN(c2ccc3cccc(NC(=O)c4cnc(C)cn4)c3n2)CC1`: the GI50 in assay [1] was 6.26 µM; in [2], 5.38 µM; in [3] it was 3.6 µM; in assay [4], 1.12 µM; in [5], 2.08 µM; in [6], 1.5 µM. Besides, the GI50 is 3.19 µM in [7], 2.46 µM in assay [8], 5.32 µM in assay [9] and 2.08 µM in assay [10]. For the same compound, the TGI in assay [1] was 30 µM; in [2] it was over 100 µM; in [3], over 100 µM; in assay [4], over 100 µM; in assay [5], 8.29 µM; in assay [6], 6.52 µM. The TGI in [7] is over 100 µM; in assay [8], 15.6 µM; in assay [9], 23.6 µM; in [10], 24.6 µM.

Regarding `COC(=O)C(Cc1ccccc1)NC(=O)NC(=O)NC(=O)CI` (stereo not given), the GI50 in [1] was 1.83 µM; in assay [2], 17.6 µM; in assay [3], 2.09 µM; in assay [4], 4.12 µM; in assay [5] it was 1.14 µM; in assay [6], 2.69 µM. For the same compound, the GI50 in assay [7] is 19.8 µM; in assay [8], 12.3 µM; in [9], 17.2 µM; in [10], 1.66 µM. In addition, the TGI was found to be 3.56 µM in assay [1]; 36.4 µM in [2]; 5.08 µM in [3]; 14.7 µM in [4]; 3.81 µM in assay [5]; 7.71 µM in assay [6]. Besides, the TGI came to 84.3 µM in [7], 26 µM in assay [8], 33.3 µM in assay [9] and 3.13 µM in assay [10].

With `Cc1ccc(C2=NOC3=c4ccccc4=CSC3=C2c2ccc([N+](=O)[O-])cc2)cc1`, the GI50 in assay [1] is 35.8 µM; in assay [2], 17.6 µM; in [3] it was 36.1 µM; in assay [4] it was 13 µM; in [5] it was 39.3 µM; in assay [6], 44.4 µM. Also, the GI50 was 31.4 µM in assay [7], 14.5 µM in assay [8], 24.4 µM in assay [9] and 33.2 µM in assay [10]. The TGI in assay [1] is over 100 µM; in assay [2] it was 63.7 µM; in [3] it was over 100 µM; in assay [4], 40.3 µM; in assay [5] it was over 100 µM; in assay [6], over 100 µM. The TGI in assay [7] is over 100 µM; in assay [8], 31.3 µM; in [9] it was over 100 µM; in assay [10], over 100 µM.

Regarding `O=C1C=C(Br)c2c(-c3ccccc3)oc3cccc1c23`, the TGI in [1] is over 100 µM; in [2], over 100 µM; in assay [3], over 86.8 µM; in assay [4] it was 82.1 µM; in assay [5], over 47.6 µM; in [6] it was over 79 µM. Further, the TGI was over 100 µM in [7], over 100 µM in [8], over 100 µM in [9] and over 87.1 µM in [10].
